Experimental data reported in patent US9492543B2, “Compositions for treating cognitive disorders” (priority 2009, dated 2016).

Assays:
[1] = test system: excitatory synaptic transmission in the olfactory cortex (fEPSP, olfactory tract - piriform cortex layer I); assay: Basal excitatory synaptic transmission (fEPSP amplitude) in the olfactory cortex of the freely moving rat; type: in vivo, Sprague-Dawley rat; settings: for DRUG FEPSP AMPLITUDE [% OF PRE-VEHICLE BASELINE ± S.E.M.]: ip, Compound X 6.0 mg/kg, 15 min post-drug period with largest increase; for activity on basal excitatory synaptic transmission (in words): Compound X 6 mg/kg ip, drug vs. vehicle, paired t-test
Protocol: (§1) Experiments were carried out in freely moving male Sprague-Dawley rats implanted with depth stimulating and recording electrodes in the hippocampus and olfactory cortex to (1) characterize the effect of a compound of Formula 1 ((2R,3S)-2-amino-3-hydroxy-3-(pyridin-4-yl)-1-(pyrrolidin-1-yl)propan-1-one) (“Compound X”) on basal excitatory synaptic transmission, a measure positively associated with behavioral performance and encoding of information; and (2) determine a possible interaction on synaptic transmission when Compound X is coapplied with physostigmine and galantamine—both members of the cholinesterase inhibitor family which has pro-cognitive efficacy in Alzheimer's Disease patients.
(§2) Field excitatory post-synaptic responses (fEPSPs) evoked by electrical stimulation were recorded in freely moving animals with depth electrodes permanently implanted in the hippocampus and olfactory cortex. Experiment 1 compared the effect of one dose level (6 mg/kg ip) of Compound X on hippocampal and cortical fEPSPs with vehicle control data. Experiment 2 compared the effect of Compound X (6 mg/kg ip) combined with either physostigmine (0.1 mg/kg ip) or galantamine (1 mg/kg ip) on hippocampal and cortical fEPSPs with vehicle control data.
(§3) Male Sprague Dawley rats, 3 months of age at the time of surgery, were used. The animals were housed individually and kept in a 12:12 light/dark cycle with food and water available ad libitum.
(§4) Preparation of animals with chronically implanted electrodes followed procedures essentially as described in earlier published work (U. Staubli and J. Scafidi, J. J. Neurosci. 17: 4820-4828 (1997)). For recordings from the hippocampus, the stimulating electrode was placed in the perforant path within the entorhinal cortex, and the recording electrode in the hilus of the hippocampal dentate gyrus. For recording from the olfactory cortex, the stimulating electrode was placed in the olfactory tract and the recording electrode in the layer I of the piriform cortex.
(§5) Ten days following recovery from surgery, the animals were acclimated to the recording cage as well as to the attachment of a recording lead to the head stage. Recording sessions began by adjusting current intensities (25-100 μA) and pulse width of the monophasic stimulation pulse (100-250 μsec) to produce a field excitatory postsynaptic potential (fEPSP) that was 50-60% of the maximum amplitude of the population-spike free response which typically ranged between 4 and 8 mV. Recording signals were amplified and filtered with a band pass of 1 Hz to 5 kHz and fed into a PC running specialized software (NacGather) that digitizes measures and stores the evoked responses.
Hippocampal animals (subjects with electrodes implanted into hippocampus) were randomly assigned to one of 3 groups, i.e., Compound X alone, Compound X plus physostigmine, physostigmine alone. Cortical animals (subjects with electrodes implanted into olfactory cortex) were randomly assigned to 5 groups, i.e., Compound X alone, Compound X plus physostigmine, physostigmine alone, Compound X plus galantamine, galantamine alone. […] If changes in baseline greater than +5% were observed, the experiment was terminated for that day. All other animals were injected with test compound 20 min after vehicle, and fEPSP recording was continued for at least 2 hours, but 4 hrs if the drug effect was still present at 2 hrs. In cases where animals were used repeatedly, a minimum of three washout days followed each test session. Responses were sampled once every 20 sec throughout the experiment.
Compound X was kept frozen at approximately −20° C. in a freezer as a powder. Immediately prior the powder was dissolved in double distilled water (ddw) to make a 12 mg/ml stock and then diluted by 50% for injection at 6 mg/kg at a final volume of 1 ml/kg.
Physostigmine (eserine hemisulfate) was purchased from Sigma Aldrich and dissolved in ddw to make a 1 mg/ml stock solution. […]

[2] = test system: hippocampal excitatory synaptic transmission (fEPSP, perforant path - dentate gyrus); assay: Basal excitatory synaptic transmission (fEPSP amplitude) in the hippocampus of the freely moving rat; type: in vivo, Sprague-Dawley rat; settings: for activity on basal excitatory synaptic transmission (in words): Compound X 6 mg/kg ip, physostigmine 0.1 mg/kg ip, drug vs. vehicle, paired t-test; for DRUG FEPSP AMPLITUDE [% OF PRE-VEHICLE BASELINE ± S.E.M.]: ip, Compound X 6.0 mg/kg, physostigmine 0.1 mg/kg, 15 min post-drug period with largest increase
Protocol: as §1, §2, §3, §4
as §5, with “responses. […]” for “responses.”

SMILES: CNC(=O)Oc1ccc2c(c1)[C@]1(C)CCN(C)[C@@H]1N2C [Physostigmine, reference compound]
- DRUG FEPSP AMPLITUDE [% OF PRE-VEHICLE BASELINE ± S.E.M.] ([1]; physostigmine 0.1 mg/kg): 5.30 + 0.69 % OF PRE-VEHICLE BASELINE
- activity on basal excitatory synaptic transmission (in words) [2]: inactive
- DRUG FEPSP AMPLITUDE [% OF PRE-VEHICLE BASELINE ± S.E.M.] [2]: 2.33 + 2.91 % OF PRE-VEHICLE BASELINE

SMILES: N[C@@H](C(=O)N1CCCC1)[C@@H](O)c1ccncc1 [Compound X, (2R,3S)-2-amino-3-hydroxy-3-(pyridin-4-yl)-1-(pyrrolidin-1-yl)propan-1-one]
- activity on basal excitatory synaptic transmission (in words) ([1]; galantamine 1 mg/kg ip): significant facilitatory activity
- activity on basal excitatory synaptic transmission (in words) ([1]; physostigmine 0.1 mg/kg ip): significant facilitatory activity
- DRUG FEPSP AMPLITUDE [% OF PRE-VEHICLE BASELINE ± S.E.M.] ([1]; galantamine 1.0 mg/kg): 10.67 + 1.67 % OF PRE-VEHICLE BASELINE
- DRUG FEPSP AMPLITUDE [% OF PRE-VEHICLE BASELINE ± S.E.M.] ([1]; physostigmine 0.1 mg/kg): 10.67 + 1.67 % OF PRE-VEHICLE BASELINE
- activity on basal excitatory synaptic transmission (in words) [2]: significant facilitatory activity
- DRUG FEPSP AMPLITUDE [% OF PRE-VEHICLE BASELINE ± S.E.M.] [2]: 7.86 ± 2.98 % OF PRE-VEHICLE BASELINE

SMILES: COc1ccc2c3c1O[C@H]1C[C@@H](O)C=C[C@@]31CCN(C)C2 [Galantamine, reference compound]
- activity on basal excitatory synaptic transmission (in words) ([1]; galantamine 1 mg/kg ip): inactive
- DRUG FEPSP AMPLITUDE [% OF PRE-VEHICLE BASELINE ± S.E.M.] ([1]; galantamine 1.0 mg/kg): 3.13 + 1.73 % OF PRE-VEHICLE BASELINE
